25 molecules from patent publication EP2951180B1, “2,6,7,8 SUBSTITUTED PURINES AS HDM2 INHIBITORS” (Merck Sharp & Dohme Corp., priority 2013, dated 2014) can be followed below.

This experiment deals with T1, HDM2 (Homo sapiens, UniProt Q00987).
T1 construct: Thioredoxin (N); made in house; host or cells: E. coli strain BL21(DE3)Rosetta
The experiment is described as follows: HDM2 FRET assay (inhibition of binding of FITC labeled p53-pocket peptide to HDM2). As to conditions: read-out: FRET IC50. The essentials: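 Signal is read as the 520/495 nm emission ratio and converted to percent inhibition; nonlinear sigmoidal regression yields IC50. The assay mixes HDM2 (0.5 nM), FITC-p53 peptide (3 nM) and Tb anti-His antibody (0.25 nM) at 0.1% DMSO.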

Setting [1] is: 0.5 nM HDM2 (residues 17 to 125), 3nM peptide, two hour incubation at room temperature.

Molecules are shown by their SMILES. Where two headings read alike, the source gives them in different places.

T1 sequence (Q00987 17-125): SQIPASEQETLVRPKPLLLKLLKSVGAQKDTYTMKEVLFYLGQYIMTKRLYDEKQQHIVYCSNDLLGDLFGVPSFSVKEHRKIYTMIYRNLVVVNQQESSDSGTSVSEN

Usually IC50 stands for the concentration that gives 50% inhibition. Turning to `C[C@@H]1COCCN1c1nc2nc(CC(=O)O)nc(-c3cccc(Cl)c3)c2n1C[C@H]1CC[C@H](C)CC1` [Example 26.2, {6-(3-chlorophenyl)-7-[(trans-4-methylcyclohexyl)methyl]-8-[(3R)-3-methylmorpholin-4-yl]-7H-purin-2-yl} acetic acid], the concentration for half-maximal inhibition (IC50) (Table 26) came to 783 nM.

As for `C[C@@H](Nc1nc(-c2n[nH]c(=O)o2)nc2nc(N3CCC[C@H]3C(F)(F)F)n(C[C@H]3CC[C@H](C)CC3)c12)C1CCC1` [Example 11.137, 5-(6-{[(1R)-1-cyclobutylethyl]amino}-7-[(trans-4-methylcyclohexyl)methyl]-8-[(2S)-2-(trifluoromethyl)pyrrolidin-1-yl]-7H-purin-2-yl)-1,3,4-oxadiazol-2(3H)-one], where the note is “Table 11”, the IC50 was 0.881 nM.

On to `C[C@@H]1COC[C@H](C)N1c1nc2nc(-c3noc(=O)[nH]3)nc(-c3cccc(Cl)c3)c2n1C[C@H]1CC[C@H](C)CC1` [Example 16.67, 3-{6-(3-chlorophenyl)-8-[(3R,5S)-3,5-dimethylmorpholin-4-yl]-7-[(trans-4-methylcyclohexyl)methyl]-7H-purin-2-yl}-1,2,4-oxadiazol-5(4H)-one], for which the IC50 under setting [1] is 6.36 nM.

`CC1CCCC(c2nc(-c3noc(=O)[nH]3)nc3nc(N4CCOC[C@H]4c4ccccc4)n(C[C@H]4CC[C@H](C)CC4)c23)C1` (stereo partly drawn) [Example 16.169, 3-{6-(3-methylcyclohexyl)-7-[(trans-4-methylcyclohexyl)methyl]-8-[(3R)-3-phenylmorpholin-4-yl]-7H -purin-2-yl}-1,2,4-oxadiazol-5(4H)-one]: the IC50 under setting [1] is 2.53 nM.

On to `Cc1cccc(-c2nc3nc(C(=O)O)nc(NC4CCC(C)CC4)c3n2Cc2ccc(C(F)(F)F)cc2)c1` (stereo not shown) [Example 6.19, 6-[(4-methylcyclohexyl)amino]-8-(3-methylphenyl)-7-[4-(trifluoromethyl)benzyl]-7H-purine-2-carboxylic acid], for which, for the setting “Table 6”, the IC50 stood at 869 nM.

For the molecule `CC([C@H]1CC[C@H](C)CC1)n1c(N2CCOC[C@H]2C)nc2nc(-c3noc(=O)[nH]3)nc(N[C@H](C)C3CCC3)c21` (single isomer, unassigned) [Example 18.13], the IC50 (Table 18) was 2.27 nM.

In the case of `C[C@@H](Nc1nc(-c2noc(=O)[nH]2)nc2nc(C(C)(O)c3cscn3)n(C[C@H]3CC[C@H](C)CC3)c12)C1CCC1` (stereo partly drawn) [Example 22.50, 3-(6-{[(1R)-1-cyclobutylethyl]amino}-8-[1-hydroxy-1-(1,3-thiazol-4-yl)ethyl]-7-[(trans-4-methylcyclohexyl)methyl] -7H-purin-2-yl)-1,2,4-oxadiazol-5(4H)-one], under “Table 22”, the IC50 turned out to be 10.3 nM.

On to `Cc1cccc(-c2nc3nc(C(=O)O)nc(N4CCCC4)c3n2Cc2ccc(C(F)(F)F)cc2)c1` [Example 6.23, 8-(3-methylphenyl)-6-pyrrolidin-1-yl-7-[4-(trifluoromethyl)benzyl]-7H-purine-2-carboxylic acid], for which, where the note is “Table 6”, the IC50 was 8270 nM.

Consider `CCC(c1ccccc1)N(C)c1nc2nc(-c3noc(=O)[nH]3)nc(N[C@H](C)C3CCC3)c2n1Cc1ccc(C(F)(F)F)c(F)c1` (stereo partly drawn) [Example 9.71, 3-(6-{[(1R)-1-cyclobutylethyl]amino}-7-[3-fluoro-4-(trifluoromethyl)benzyl]-8-[methyl(1-phenylpropyl)amino]-7H-purin-2-yl)-1,2,4-oxadiazol-5(4H)-one], for which the IC50 (Table 9) was 18.1 nM.

In the case of `CC(C)C(O)c1nc2nc(-c3noc(=O)[nH]3)nc(N[C@H](C)C3CCC3)c2n1C[C@H]1CC[C@H](C)CC1` (stereo partly drawn) [Example 22.45, 3-(6-{[(1R)-1-cyclobutylethyl]amino}-8-(1-hydroxy-2-methylpropyl)-7-[(trans-4-methylcyclohexyl)methyl] -7H-purin-2-yl)-1,2,4-oxadiazol-5(4H)-one], the IC50 (Table 22) is 3.66 nM.

As for `C[C@H]1CC[C@H](Cn2c(N3CCOC[C@H]3c3ccccc3F)nc3nc(-c4n[nH]c(=O)o4)nc(-c4cncc(Cl)c4)c32)CC1` [Example 16.95, 5-{6-(5-chloropyridin-3-yl)-8-[(3R)-3-(2-fluorophenyl)morpholin-4-yl]-7-[(trans-4-methylcyclohexyl)methyl]-7H-purin-2-yl}-1,3,4-oxadiazol-2(3H)-one], under setting [1], the IC50 is 0.494 nM.

For `C[C@@H]1CN(S(C)(=O)=O)CCN1c1nc2nc(-c3noc(=O)[nH]3)nc(N[C@H](C)C3CCC3)c2n1C[C@H]1CC[C@H](C)CC1` [Example 17.14, 3-(6-{[(1R)-1-cyclobutylethyl]amino}-7-[(trans-4-methylcyclohexyl)methyl]-8-[(2R)-2-methyl-4-(methylsulfonyl)piperazin-1-yl]-7H-purin-2-yl)-1,2,4-oxadiazol-5(4H)-one], the IC50 (Table 17.2) amounted to 4.93 nM.

For the molecule `C[C@H]1CC[C@H](Cn2c(N3CCCC4COCCC43)nc3nc(-c4noc(=O)[nH]4)nc(-c4cccc(Cl)c4)c32)CC1` (single isomer, unassigned) [Example 16.118, 3-{6-(3-chlorophenyl)-8-(hexahydro-2H-pyrano[4,3-b]pyridin-1(5H)-yl)-7-[(trans-4-methylcyclohexyl)methyl]-7H-purin-2-yl}-1,2,4-oxadiazol-5(4H)-one], the IC50 under setting [1] is 22.2 nM.

On to `Cc1cccc(-c2nc3nc(C(=O)O)nc(N[C@H](C4CC4)C(F)(F)F)c3n2Cc2ccc(C(F)(F)F)cc2)c1` [Example 6.52, 6-{[(1R)-1-cyclopropyl-2,2,2-trifluoroethyl]amino}-8-(3-methylphenyl)-7-[4-(trifluoromethyl)benzyl]-7H-purine-2-carboxylic acid], for which the IC50 (Table 6) was found to be 319 nM.

Take `CC(C)c1ccnc(-c2nc3nc(-c4nnn[nH]4)nc(N[C@H](C)C4CCC4)c3n2C[C@H]2CC[C@H](C)CC2)c1` [Example 12.8, N-[(1R)-1-cyclobutylethyl]-7-[(trans-4-methylcyclohexyl)methyl]-8-[4-(propan-2-yl)pyridin-2-yl]-2-(1H-tetrazol-5-yl)-7H-purin-6-amine]: under setting [1], the IC50 turned out to be 1.91 nM.

`Cc1cccc(-c2nc3nc(C(=O)O)nc(N[C@H](C)C(C)(C)C)c3n2Cc2ccc(C(F)(F)F)cc2)c1` [Example 6.47, 8-(3-methylphenyl)-7-[4-(trifluoromethyl)benzyl]-6-{[(1R)-1,2,2-trimethylpropyl]amino}-7H-purine-2-carboxylic acid]: the half-maximal inhibitory concentration (IC50) (Table 6) is 448 nM.

For the molecule `C[C@H]1CC[C@H](Cn2c(C3(c4ccccc4)CCC3)nc3nc(-c4n[nH]c(=O)o4)nc(-c4cncc(Cl)c4)c32)CC1` [Example 20.12, 5-[6-(5-chloropyridin-3-yl)-7-[(trans-4-methylcyclohexyl)methyl]-8-(1-phenylcyclobutyl)-7H-purin-2-yl]-1,3,4-oxadiazol-2(3H)-one], where the note is “Table 20”, the IC50 came out at 9.59 nM.

Turning to `C[C@@H](Nc1nc(-c2noc(=O)[nH]2)nc2nc(C3CCC3)n(C[C@H]3CC[C@H](C)CC3)c12)C1CCC1` [Example 22.70, 3-(8-cyclobutyl-6-{[(1R)-1-cyclobutylethyl]amino}-7-[(trans-4-methylcyclohexyl)methyl]-7H-purin-2-yl)-1,2,4-oxadiazol-5(4H)-one], under “Table 22”, the IC50 is 15.1 nM.

As for `C[C@@H](Nc1nc(-c2noc(=O)[nH]2)nc2nc(N(C)Cc3cnccn3)n(C[C@H]3CC[C@H](C)CC3)c12)C1CCC1` [Example 11.72, 3-(6-{[(1R)-1-cyclobutylethyl]amino}-7-[(trans-4-methylcyclohexyl)methyl]-8-[methyl(pyrazin-2-ylmethyl)amino]-7H-purin-2-yl)-1,2,4-oxadiazol-5(2H)-one], the IC50 (Table 11) worked out at 5.98 nM.

On to `CC[C@H]1CC[C@H](Cn2c(N3CCCCC3)nc3nc(C(=O)O)nc(N[C@H](C)C4CCC4)c32)CC1` [Example 18.18, 6-{[(1R)-1-cyclobutylethyl]amino}-7-[(trans-4-ethylcyclohexyl)methyl]-8-piperidin-1-yl-7H-purine-2-carboxylic acid], for which the IC50 (Table 18) worked out at 8.6 nM.

As to `C[C@@H](Nc1nc(S(C)(=O)=O)nc2nc(N3CCCCC3c3ccccc3)n(C[C@H]3CC[C@H](C)CC3)c12)C1CCC1` (single isomer, unassigned) [Example 14.10], the IC50 under setting [1] was determined as 109 nM.

In the case of `CC(C)CC1COCCN1c1nc2nc(C(=O)O)nc(N[C@H](C)C3CCC3)c2n1Cc1ccc(C(F)(F)F)cc1` (stereo partly drawn) [Example 9.66, 6-{[(1R)-1-cyclobutylethyl]amino}-8-[3-(2-methylpropyl)morpholin-4-yl]-7-[4-(trifluoromethyl)benzyl]-7H-purine-2-carboxylic acid], the IC50 (Table 9) worked out at 6.07 nM.

On to `C[C@H]1CC[C@H](Cn2c(N3CCO[C@H]4CCC[C@@H]43)nc3nc(-c4noc(=O)[nH]4)nc(-c4cccc(Cl)c4)c32)CC1` [Example 16.81, 3-{6-(3-chlorophenyl)-8-[(4aS,7aS)-hexahydrocyclopenta [b][1,4]oxazin-4(4aH)-yl]-7-[(trans-4-methylcyclohexyl)methyl]-7H-purin-2-yl}-1,2,4-oxadiazol-5(4H)-one], for which the IC50 under setting [1] came to 105 nM.

For the molecule `C[C@@H](Nc1nc(-c2noc(=O)[nH]2)nc2nc(N3CCOCC3c3ccc(Cl)cc3)n(C[C@H]3CC[C@H](C)CC3)c12)C1CCC1` (stereo partly drawn) [Example 11.99, 3-{8-[3-(4-chlorophenyl)morpholin-4-yl]-6-{[(1R)-1-cyclobutylethyl]amino}-7-[(trans-4-methylcyclohexyl)methyl]-7H-purin-2-yl}-1,2,4-oxadiazol-5(4H)-one], the half-maximal inhibitory concentration (IC50) (Table 11) was 3.43 nM.

On to `COc1ccc(C2CCCCN2c2nc3nc(C(=O)O)nc(N[C@H](C)C4CCC4)c3n2Cc2ccc(C(F)(F)F)cc2)cc1` (stereo partly drawn) [Example 9.70, 6-{[(1R)-1-cyclobutylethyl]amino}-8-[2-(4-methoxyphenyl)piperidin-1-yl]-7-[4-(trifluoromethyl)benzyl]-7H-purine-2-carboxylic acid], for which the IC50 (Table 9) amounted to 9.29 nM.
